Source: patent US5401760A, “Heterocyclic compounds” (Ono Pharmaceutical Co., Ltd., priority 1988, dated 1995)
Where a SMILES comes first, the peptide text is derived from it.

System: prolyl endopeptidase
Test: not given
Conditions: literature, J. Neurochem., 41, 69 (1983); cited from earlier work
In the case of `O=C(NCC(=O)N1CCC[C@H]1C(=O)CCl)OCc1ccccc1` [N-benzyloxycarbonyl-glycyl-L-prolyl-chloromethane] (HELM PEPTIDE1{[O=C(OCc1ccccc1)[*:2]].G.P.[ClC[*:1]]}$$$$V2.0), the inhibit prolyl endopeptidase is given as “strongly inhibit”.

Biological target: T1, prolyl endopeptidase (Bos taurus, UniProt Q9XTA2)
T1 construct: prolyl endopeptidase which was purified from bovine brain; from tissue; host or cells: bovine brain (purified enzyme)
T1 sequence (Q9XTA2 whole entry): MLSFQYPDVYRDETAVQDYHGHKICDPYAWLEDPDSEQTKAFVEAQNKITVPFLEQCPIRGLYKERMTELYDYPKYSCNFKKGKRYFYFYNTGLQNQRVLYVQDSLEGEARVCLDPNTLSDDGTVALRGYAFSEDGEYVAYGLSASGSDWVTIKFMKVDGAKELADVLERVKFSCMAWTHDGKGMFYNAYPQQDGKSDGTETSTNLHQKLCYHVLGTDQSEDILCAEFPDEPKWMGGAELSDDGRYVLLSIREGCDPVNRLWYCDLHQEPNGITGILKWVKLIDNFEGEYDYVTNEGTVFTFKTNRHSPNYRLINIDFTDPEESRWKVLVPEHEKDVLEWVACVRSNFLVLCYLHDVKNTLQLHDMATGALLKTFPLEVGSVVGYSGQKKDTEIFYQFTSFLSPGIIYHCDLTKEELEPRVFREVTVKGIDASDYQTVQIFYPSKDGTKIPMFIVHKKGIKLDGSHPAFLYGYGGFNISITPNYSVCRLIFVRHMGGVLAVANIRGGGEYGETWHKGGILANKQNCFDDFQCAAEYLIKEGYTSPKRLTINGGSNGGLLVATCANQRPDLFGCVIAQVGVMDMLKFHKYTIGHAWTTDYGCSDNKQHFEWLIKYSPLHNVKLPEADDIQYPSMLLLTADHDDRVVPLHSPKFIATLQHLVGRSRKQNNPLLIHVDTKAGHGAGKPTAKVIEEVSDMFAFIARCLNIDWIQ
Test: Prolyl endopeptidase inhibitory activity in vitro
Format: biochemical
Conditions: enzyme purified from bovine brain, pH 7.5, 37° C., substrate N-benzyloxycarbonyl-glycyl-prolyl-p-nitroanilide, read-out: Concentration for 50% inhibition IC50
Description: For example, in a standard laboratory test, results in the following were given.
Prolyl endopeptidase inhibitory activity in vitro
Inhibitory activity of prolyl endopeptidase in vitro was measured by the following test system.
A mixed solution of 20 mM tris-HCl buffer (pH 7.5; 935 μl; containing 10 mM EDTA and 10 mM mercaptoethanol), a solution of a compound of the present invention in DMSO (10 μl) and a solution of prolyl endopeptidase which was purified from bovine brain (0.13 unit ml; prepared by the method described in J. Biochem., 94, 1179 (1983) ) in tris-HCl buffer (15 μl) was preincubated for 15 mins at 37° C.
To the solution, 5 mM of N-benzyloxycarbonyl-glycyl-prolyl-p-nitroanilide (40 μl) in a mixture of 40% dioxane-60% water was added. The solution was incubated for 1 min at the same temperature.
Optical absorption (a1) at 405 nm of the solution, and optical absorption (a2) at 405 nm of the solution after more 30 mins' incubation at 37° C. were measured.
Optical absorptions (b1 and b2) of the solutions using DMSO instead of the solution of the compound of the present invention were also measured.
Inhibitory ratio was calculated by the following expression and IC50 (required concentration for 50% inhibition) was obtained (See Protein, Nucleic acid and Enzyme 25(6), 513, 1980.). [formula] Toxicity
`CCOC(=O)C(=O)[C@@H]1CCCN1C(=O)CCC(=O)N(Cc1ccc(C(F)(F)F)cc1)c1ccccc1` [2 (d), 2-[(2S)-1-[3-[N-(4-trifluoromethylphenylmethyl)-N-phenylcarbamoyl]propanoyl]pyrrolidin-2-yl]-2-oxoacetic acid ethyl] showed an IC50 of 0.00085 µM. With `CCOC(=O)C(F)(F)C(=O)[C@@H]1CCCN1C(=O)CCC(=O)N(C)Cc1ccccc1` [Example 13, 3-[(2S)-1-[3-(N-benzyl-N-methylcarbamoyl)propanoyl]pyrrolidin-2-yl]-3-oxo-2,2-difluoropropionic acid ethyl ester] the IC50 was 0.1 µM. `CCC(O)[C@@H]1CCCN1C(=O)CCC(=O)N(C)Cc1ccccc1` (mixture of isomers) [Example 15, (1RS)-1-[(2S)-1-[3-(N-benzyl-N-methylcarbamoyl)propanoyl]pyrrolidin-2-yl]-propan-1-ol] showed an IC50 of 1.5 µM. Compound `CCOC(=O)C(=O)[C@@H]1CCCN1C(=O)CCC(=O)N(Cc1ccccc1)c1ccccc1` [2 (g), 2-[(2S)-1-[3-(N-benzyl-N-phenylcarbamoyl)propanoyl]pyrrolidin-2-yl]-2-oxoacetic acid ethyl ester] has an IC50 of 0.0017 µM. With `CCC(O)[C@@H]1CSCN1C(=O)C1CCCCN1C(=O)CCc1ccccc1` (mixture of isomers) [15 (a), (1RS)-1-[(4R)-3-[1-(3-phenylpropanoyl)piperidin-2-ylcarbonyl]thiazolidin-4-yl]propan-1-ol] the IC50 was 0.12 µM. `CCOC(=O)C(=O)[C@@H]1CCCN1C(=O)CCC(=O)NCc1ccc(Cl)cc1Cl` [2 (l), 2-[(2S)-1-[3-[N-(2,4-dichloro-phenylmethyl)carbamoyl]propanoyl]pyrrolidin-2-yl]-2-oxoacetic acid ethyl ester] gave an IC50 of 0.0018 µM. In the case of `CN(Cc1ccccc1)C(=O)CCC(=O)N1CCC[C@H]1C(=O)C(=O)OCc1ccccc1` [Example 7, 2-[(2S)-1-[3-(N-benzyl-N-methylcarbamoyl)propanoyl]pyrrolidin-2-yl]-2-oxoacetic acid benzyl ester], the IC50 is reported as 0.0012 µM. `CCOC(=O)C(=O)[C@@H]1CCCN1C(=O)CCC(=O)NC1c2ccccc2-c2ccccc21` [2 (b), 2-[(2S)-1-[3-[N-(9-fluorenyl)carbamoyl]propanoyl]pyrrolidin-2-yl]-2-oxoacetic acid ethyl ester] gave an IC50 of 0.0018 µM. For `CN(Cc1ccccc1)C(=O)CCC(=O)N1CCC[C@H]1C(=O)C(F)(F)F` [Example 9, 1-[(2S)-1-[3-(N-benzyl-N-methylcarbamoyl)propanoyl]pyrrolidin-2-yl]-2,2,2-trifluoroethan-1-one], the IC50 was 0.023 µM. With `CCOC(=O)C(=O)[C@@H]1CCCN1C(=O)C(CCCCCc1ccccc1)C(C)C` (mixture of isomers) [2 (h), 2-[(2S)-1-[(2RS)-2-isopropyl-7-phenylheptanoyl]pyrrolidin-2-yl]-2-oxoacetic acid ethyl ester] the IC50 was 0.017 µM. Compound `CCOC(=O)C(=O)[C@@H]1CCCN1C(=O)CCC(=O)N(C)Cc1ccccc1` [Example 2, 2-[(2S)-1-[3-(N-benzyl-N-methylcarbamoyl)propanoyl]pyrrolidin-2-yl]-2-oxoacetic acid ethyl ester] has an IC50 of 0.003 µM. `CCOC(=O)C(F)(F)C(O)[C@@H]1CCCN1C(=O)CCC(=O)N(C)Cc1ccccc1` (mixture of isomers) [Example 12, (3RS)-3-[(2S)-1-[3-(N-benzyl-N-methylcarbamoyl)propanoyl]pyrrolidin-2-yl]-3-hydroxy-2,2-difluoropropionic acid ethyl ester] showed an IC50 of 69 µM. In the case of `CN(Cc1ccccc1)C(=O)CCC(=O)N1CCC[C@H]1C1OCCO1` [Example 19, 2-[(2S)-1-[3-(N-benzyl-N-methylcarbamoyl)propanoyl]pyrrolidin-2-yl]-1,3-dioxolane], the IC50 is reported as 14 µM. In the case of `O=C(CCCc1ccccc1)N1CSC[C@H]1C(=O)N1CSC[C@H]1C(O)c1ccccc1` (stereo partly drawn) [17 (a), (1RS)-1-phenyl-1-[(4R)-3-[(4R)-3-(4-phenylbutanoly)thiazolidin-4-ylcarbonyl]thiazolidin-4-yl]methanol], the IC50 is reported as 0.18 µM. In the case of `CN(Cc1ccccc1)C(=O)CCC(=O)N1CCC[C@H]1C(O)C(=O)OCc1ccccc1` (mixture of isomers) [Example 6, (2RS)-2-[(2S)-1-[3-(N-benzyl-N-methylcarbamoyl)propanoyl]pyrrolidin-2-yl]-2-hydroxyacetic acid benzyl ester], the IC50 is reported as 3 µM.
